Test results as given in patent US8304419B2, “Chemical compounds” (priority 2007, dated 2012).
Structures can show the parent of a compound that is named as a salt.

system: HIV wild type (WTRVA); assay: HeLa cell assay, wild type virus (WTRVA); format: cell-based, HIV-1; parameters: scale not given here; settings: HeLa-CD4-LTR-β-gal cells, wild type virus; trifluoroacetate; read-out: WTRVA activity level

Row | SMILES | IC50 [nM]
1 | N#Cc1cc(Cl)cc(Oc2c(Cl)ccc(CNC(=O)c3[nH]c4ccccc4c3Br)c2F)c1 [Example 54, 3-bromo-N-({4-chloro-3-[(3-chloro-5-cyanophenyl)oxy]-2-fluorophenyl}methyl)-1H-indole-2-carboxamide trifluoroacetate] | < 10

same assay, conditions: Human immunodeficiency virus 1, HeLa, HeLa cell assay; read-out: IC50 against WTRVA

Row | SMILES | IC50 [nM]
2 | N#Cc1cc(Oc2c(Cl)ccc(CNC(=O)c3[nH]cnc3Br)c2F)cc(C(F)F)c1 [Example 375, 4-bromo-N-[(4-chloro-3-{[3-cyano-5-(difluoromethyl)phenyl]oxy}-2-fluorophenyl)methyl]-1H-imidazole-5-carboxamide] | < 10
3 | C=C(C)c1cc(C#N)cc(Oc2c(Cl)ccc(CNC(=O)c3[nH]cnc3Cl)c2F)c1 [Example 158, 4-chloro-N-[(4-chloro-3-{[3-cyano-5-(1-methylethenyl)phenyl]oxy}-2-fluorophenyl)methyl]-1H-imidazole-5-carboxamide] | < 10
4 | Cc1cc(C#N)cc(Oc2c(Cl)ccc(CNC(=O)c3[nH]cnc3Cl)c2F)c1 [Example 145, 4-chloro-N-({4-chloro-3-[(3-cyano-5-methylphenyl)oxy]-2-fluorophenyl}methyl)-1H-imidazole-5-carboxamide] | < 10
5 | CCNc1nc(Cl)c(C(=O)NCc2ccc(Cl)c(Oc3cc(Cl)cc(C#N)c3)c2F)[nH]1 [Example 362, 4-chloro-N-({4-chloro-3-[(3-chloro-5-cyanophenyl)oxy]-2-fluorophenyl}methyl)-2-(ethylamino)-1H-imidazole-5-carboxamide trifluoroacetate] | < 10
6 | Cc1nc(Cl)c(C(=O)NCc2ccc(Cl)c(Oc3cc(C#N)cc(C(F)F)c3)c2F)[nH]1 [Example 300, 4-chloro-N-[(4-chloro-3-{[3-cyano-5-(difluoromethyl)phenyl]oxy}-2-fluorophenyl)methyl]-2-methyl-1H-imidazole-5-carboxamide trifluoroacetate] | < 10
7 | Cc1nc(Cl)c(C(=O)NCc2ccc(Br)c(Oc3cc(Cl)cc(C#N)c3)c2F)[nH]1 [Example 231, N-({4-bromo-3-[(3-chloro-5-cyanophenyl)oxy]-2-fluorophenyl}methyl)-4-chloro-2-methyl-1H-imidazole-5-carboxamide trifluoroacetate] | < 10
8 | Cc1nc(Cl)c(C(=O)NCc2ccc(Cl)c(Oc3cc(C#N)cc(C4CC4)n3)c2F)[nH]1 [Example 273, 4-Chloro-N-({4-chloro-3-[(4-cyano-6-cyclopropyl-2-pyridinyl)oxy]-2-fluorophenyl}methyl)-2-methyl-1H-imidazole-5-carboxamide] | < 10
9 | CNc1nc(Cl)c(C(=O)NCc2ccc(Cl)c(Oc3cc(Cl)cc(C#N)c3)c2F)[nH]1 [Example 363, 4-chloro-N-({4-chloro-3-[(3-chloro-5-cyanophenyl)oxy]-2-fluorophenyl}methyl)-2-(methylamino)-1H-imidazole-5-carboxamide trifluoroacetate] | < 10
10 | Cc1cc(C#N)cc(Oc2c(Cl)ccc(CNC(=O)c3[nH]c(C)nc3Cl)c2F)n1 [Example 271, 4-Chloro-N-({4-chloro-3-[(4-cyano-6-methyl-2-pyridinyl)oxy]-2-fluorophenyl}methyl)-2-methyl-1H-imidazole-5-carboxamide] | < 10
11 | N#Cc1cc(Oc2c(Cl)ccc(CNC(=O)c3[nH]cnc3Cl)c2F)cc(C2CC2)c1 [Example 152, 4-chloro-N-({4-chloro-3-[(3-cyano-5-cyclopropylphenyl)oxy]-2-fluorophenyl}methyl)-1H-imidazole-5-carboxamide] | < 10
12 | C[C@@H](O)C#Cc1cc(Cl)cc(Oc2c(Cl)ccc(CNC(=O)c3[nH]cnc3Cl)c2F)c1 [Example 319, 4-chloro-N-{[4-chloro-3-({3-chloro-5-[(3R)-3-hydroxy-1-butyn-1-yl]phenyl}oxy)-2-fluorophenyl]methyl}-1H-imidazole-5-carboxamide] | < 10

same assay, conditions: Human immunodeficiency virus 1, HeLa, HeLa-CD4-LTR-β-gal cells, wild type virus; read-out: WTRVA activity level

Row | SMILES | IC50 [nM]
13 | Cc1c(C(=O)NCc2ccc(Cl)c(Oc3cc(Cl)cc(C#N)c3)c2F)[nH]c2ccc(Cl)cc12 [Example 40, 5-chloro-N-({4-chloro-3-[(3-chloro-5-cyanophenyl)oxy]-2-fluorophenyl}methyl)-3-methyl-1H-indole-2-carboxamide] | 10 to 1000
14 | CNCC(=O)Nc1ccc2[nH]c(C(=O)NCc3ccc(Cl)c(Oc4cc(Cl)cc(C#N)c4)c3F)cc2c1 [Example 119] | < 10
15 | N#Cc1cc(Cl)cc(Oc2c(Cl)ccc(CNC(=O)c3cc4cc(F)ccc4[nH]3)c2F)c1 [Example 41, N-({4-chloro-3-[(3-chloro-5-cyanophenyl)oxy]-2-fluorophenyl}methyl)-5-fluoro-1H-indole-2-carboxamide] | 10 to 1000
16 | Cc1[nH]c(C(=O)NCc2ccc(Cl)c(Oc3cc(Cl)cc(C#N)c3)c2F)c(C)c1C#N [Example 71, N-({4-chloro-3-[(3-chloro-5-cyanophenyl)oxy]-2-fluorophenyl}methyl)-4-cyano-3,5-dimethyl-1H-pyrrole-2-carboxamide trifluoroacetate] | < 10
17 | N#Cc1cc(Cl)cc(Oc2c(Cl)ccc(CNC(=O)c3cc4cc(NC(=O)CN)ccc4[nH]3)c2F)c1 [Example 120, N-({4-chloro-3-[(3-chloro-5-cyanophenyl)oxy]-2-fluorophenyl}methyl)-5-(glycylamino)-1H-indole-2-carboxamide trifluoroacetate] | < 10
18 | N#Cc1cc(Cl)cc(Oc2c(Cl)ccc(CNC(=O)c3cc4cc(Cl)ccc4o3)c2F)c1 [Example 49, 5-chloro-N-({4-chloro-3-[(3-chloro-5-cyanophenyl)oxy]-2-fluorophenyl}methyl)-1-benzofuran-2-carboxamide trifluoroacetate] | > 1000
19 | N#Cc1cc(Cl)cc(Oc2c(Cl)ccc(CNC(=O)c3csc(-c4cccnc4)n3)c2F)c1 [Example 98, N-({4-chloro-3-[(3-chloro-5-cyanophenyl)oxy]-2-fluorophenyl}methyl)-2-(3-pyridinyl)-1,3-thiazole-4-carboxamide trifluoroacetate] | < 10
20 | CN(C)CCOc1ccc2[nH]c(C(=O)NCc3ccc(Cl)c(Oc4cc(Cl)cc(C#N)c4)c3F)cc2c1 [Example 105, N-({4-chloro-3-[(3-chloro-5-cyanophenyl)oxy]-2-fluorophenyl}methyl)-5-{[2-(dimethylamino)ethyl]oxy}-1H-indole-2-carboxamide] | < 10
21 | COc1ccc(C(=O)NCc2ccc(Cl)c(Oc3cc(Cl)cc(C#N)c3)c2F)c(C)c1 [Example 17, N-({4-chloro-3-[(3-chloro-5-cyanophenyl)oxy]-2-fluorophenyl}methyl)-2-methyl-4-(methyloxy)benzamide] | 10 to 1000
22 | COc1ccc2[nH]c3c(c2c1)CCN(Cc1ccc(Cl)c(Oc2cc(Cl)cc(C#N)c2)c1F)C3=O [Example 38, 3-chloro-5-[(6-chloro-2-fluoro-3-{[6-(methyloxy)-1-oxo-1,3,4,9-tetrahydro-2H-β-carbolin-2-yl]methyl}phenyl)oxy]benzonitrile] | 10 to 1000
23 | CC(C)(C)OC(=O)N1CCC[C@H]1C(=O)Nc1ccc2[nH]c(C(=O)NCc3ccc(Cl)c(Oc4cc(Cl)cc(C#N)c4)c3F)cc2c1 [Example 117, 1,1-dimethylethyl (2S)-2-{[(2-{[({4-chloro-3-[(3-chloro-5-cyanophenyl)oxy]-2-fluorophenyl}methyl)amino]carbonyl}-1H-indol-5-yl)amino]carbonyl}-1-pyrrolidinecarboxylate] | < 10
24 | N#Cc1cc(Cl)cc(Oc2c(Cl)ccc(CNC(=O)c3cc4cc(OCC(CO)CO)ccc4[nH]3)c2F)c1 [Example 22, N-({4-chloro-3-[(3-chloro-5-cyanophenyl)oxy]-2-fluorophenyl}methyl)-5-{[3-hydroxy-2-(hydroxymethyl)propyl]oxy}-1H-indole-2-carboxamide] | < 10
25 | Cc1nc(Br)c(C(=O)NCc2ccc(Cl)c(Oc3cc(Cl)cc(C#N)c3)c2F)[nH]1 [Example 134, 4-bromo-N-({4-chloro-3-[(3-chloro-5-cyanophenyl)oxy]-2-fluorophenyl}methyl)-2-methyl-1H-imidazole-5-carboxamide] | < 10
26 | N#Cc1cc(Cl)cc(Oc2c(Cl)ccc(CNC(=O)c3cc4cc(N(CC5CC5)CC5CC5)ccc4[nH]3)c2F)c1 [Example 127, 5-[bis(cyclopropylmethyl)amino]-N-({4-chloro-3-[(3-chloro-5-cyanophenyl)oxy]-2-fluorophenyl}methyl)-1H-indole-2-carboxamide] | 10 to 1000
27 | N#Cc1cc(Cl)cc(Oc2cc(CNC(=O)c3ccc(Cl)c(S(N)(=O)=O)c3)ccc2Cl)c1 [Example 5, 3-(aminosulfonyl)-4-chloro-N-({4-chloro-3-[(3-chloro-5-cyanophenyl)oxy]phenyl}methyl)benzamide trifluoroacetate] | 10 to 1000
28 | N#Cc1cc(Cl)cc(Oc2c(Cl)ccc(CNC(=O)c3cn[nH]c3)c2F)c1 [Example 100, N-({4-chloro-3-[(3-chloro-5-cyanophenyl)oxy]-2-fluorophenyl}methyl)-1H-pyrazole-4-carboxamide trifluoroacetate] | < 10
29 | COc1ccc2[nH]c(C(=O)NCc3ccc(Cl)c(Oc4cc(Cl)cc(C#N)c4)c3F)cc2c1Br [Example 73, 4-bromo-N-({4-chloro-3-[(3-chloro-5-cyanophenyl)oxy]-2-fluorophenyl}methyl)-5-(methyloxy)-1H-indole-2-carboxamide trifluoroacetate] | 10 to 1000
30 | CCCCc1nc(Cl)c(C(=O)NCc2ccc(Cl)c(Oc3cc(Cl)cc(C#N)c3)c2F)[nH]1 [Example 140, 2-butyl-4-chloro-N-({4-chloro-3-[(3-chloro-5-cyanophenyl)oxy]-2-fluorophenyl}methyl)-1H-imidazole-5-carboxamide trifluoroacetate] | < 10
31 | CCc1nc(Cl)c(C(=O)NCc2ccc(Cl)c(Oc3cc(Cl)cc(C#N)c3)c2F)[nH]1 [Example 77, 4-chloro-N-({4-chloro-3-[(3-chloro-5-cyanophenyl)oxy]-2-fluorophenyl}methyl)-2-ethyl-1H-imidazole-5-carboxamide trifluoroacetate] | < 10
